Where two headings read alike, the source gives them in different places.
Experiments:
Assay type in all cases: in vivo
[1] = system: adult Tetranychus cinnabarinus; test: Activity assay of adult Tetranychus cinnabarinus (whole-plant spray on bean seedlings); conditions: 48 h, read-out: adult mite-killing activity; for pest or weed control at 1.25 µg/mL: concentration 1.25 mg/L
Summary of the method: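 Bean seedlings at two-true-leaf stage, infested with adult mites and base count taken, sprayed whole-plant with compound in DMF (≤10%) diluted in 1‰ Tween 80. Three replicates per treatment kept in standard observation room. Surviving mites counted at 48 h to give death rate.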

[2] = system: Tetranychus cinnabarinus Nymphs; test: Activity assay of Tetranychus cinnabarinus nymphs (spray on broad bean leaves)
Summary of the method: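 Compound in DMF (≤10%) diluted in 1‰ Tween 80 water was sprayed onto broad bean leaves carrying nymphs hatched from eggs laid by female adults over 24 h. Kept at 26±2° C., 70%–80% humidity, 16 h light; mortality (no response to touch) assessed after 48 h, three replicates with blank control.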

[3] = system: Eggs of Tetranychus Cinnabarinus; test: Activity assay of eggs of Tetranychus cinnabarinus (spray method, ovicidal); conditions: Tetranychus cinnabarinus, read-out: ovicidal activity; for pest or weed control at 2 µg/mL: concentration 2 mg/L
Summary of the method: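 Female mites laid eggs on broad bean leaves for 24 h, adults removed, eggs sprayed with compound in DMF (≤10%)/1‰ Tween 80. Held at 26±2° C, 70–80% humidity, 16 h light; unhatched eggs counted dead once blank control hatched. Three replicates.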

[4] = 48 h, concentration 2.5 mg/L, read-out: nymph-killing activity
[5] = concentration 5 mg/L, spray, non-incubated eggs counted as dead
[6] = 48 h, concentration 2 mg/L, read-out: nymph-killing activity
[7] = 48 h, read-out: nymph-killing activity
[8] = concentration 2.5 mg/L, 48 h, read-out: nymph-killing activity

SMILES | pest or weed control at 2.5 µg/mL ([1]; concentration 2.5 mg/L) | pest or weed control at 2.5 µg/mL [2, 4] | pest or weed control at 5 µg/mL [3, 5] | also measured
CCn1nc(C)c(Cl)c1/C(OCOC(=O)C(C)C)=C(\C#N)c1ccc(C(C)(C)C)cc1 [Compound 304] | ≥ 90% | ≥ 95% | ≥ 90% | –
CCn1nc(C)c(Cl)c1/C(OCOC(=O)C(C)(C)C)=C(\C#N)c1ccc(C(C)(C)C)cc1 [Compound 305] | ≥ 90% | ≥ 95% | ≥ 90% | pest or weed control at 1.25 µg/mL [1]: ≥ 90%; pest or weed control at 2 µg/mL [2, 6]: ≥ 90%; pest or weed control at 2 µg/mL ([3]; spray): ≥ 90%
CCCCC(=O)OCO/C(=C(/C#N)c1ccc(C(C)(C)C)cc1)c1c(Cl)c(C)nn1CC [Compound 306] | ≥ 90% | ≥ 95% | ≥ 90% | –
CCn1nc(C)c(Cl)c1/C(OCOC(=O)CC(C)C)=C(\C#N)c1ccc(C(C)(C)C)cc1 [Compound 307] | ≥ 90% | ≥ 95% | ≥ 90% | –
CCn1nc(C)c(Cl)c1/C(OCOC(=O)COC)=C(\C#N)c1ccc(C(C)(C)C)cc1 [Compound 308] | ≥ 90% | ≥ 95% | ≥ 90% | –
CCn1nc(C)c(Cl)c1/C(OCOC(=O)C1CC1)=C(\C#N)c1ccc(C(C)(C)C)cc1 [Compound 309] | ≥ 90% | ≥ 95% | ≥ 90% | pest or weed control at 1.25 µg/mL [1]: ≥ 90%; pest or weed control at 2 µg/mL [2, 6]: ≥ 90%; pest or weed control at 2 µg/mL ([3]; spray): ≥ 90%
CCn1nc(C)c(Cl)c1/C(OCOC(=O)CSC)=C(\C#N)c1ccc(C(C)(C)C)cc1 [Compound 310] | ≥ 90% | ≥ 95% | ≥ 90% | –
CCn1nc(C)c(Cl)c1/C(OCOC(=O)C1CCCCC1)=C(\C#N)c1ccc(C(C)(C)C)cc1 [Compound 311] | ≥ 90% | ≥ 95% | ≥ 90% | –
CCn1nc(C)c(Cl)c1/C(OCOC(=O)CF)=C(\C#N)c1ccc(C(C)(C)C)cc1 [Compound 312] | – | – | – | pest or weed control at 2.5 µg/mL [1]: ≥ 90%; pest or weed control at 2.5 µg/mL [2, 7]: ≥ 95%; pest or weed control at 5 µg/mL [3]: ≥ 90%
CCn1nc(C)c(Cl)c1/C(OCOC(=O)C(F)(F)F)=C(\C#N)c1ccc(C(C)(C)C)cc1 [Compound 313] | ≥ 90% | ≥ 95% | ≥ 90% | –
CCn1nc(C)c(Cl)c1/C(OCOC(=O)c1ccccc1)=C(\C#N)c1ccc(C(C)(C)C)cc1 [Compound 314] | ≥ 90% | ≥ 95% | ≥ 90% | –
CCn1nc(C)c(Cl)c1/C(OCOC(=O)Cc1ccccc1)=C(\C#N)c1ccc(C(C)(C)C)cc1 [Compound 315] | ≥ 90% | – | ≥ 90% | pest or weed control at 2.5 µg/mL [2, 8]: ≥ 95%
CCn1nc(C)c(Cl)c1/C(OCOC(=O)C(C)(C)CC)=C(\C#N)c1ccc(C(C)(C)C)cc1 [Compound 316] | ≥ 90% | ≥ 95% | ≥ 90% | –
C=CC(=O)OCO/C(=C(/C#N)c1ccc(C(C)(C)C)cc1)c1c(Cl)c(C)nn1CC [Compound 317] | ≥ 90% | ≥ 95% | ≥ 90% | –
CCn1nc(C)c(Cl)c1/C(OC(C)OC(C)=O)=C(\C#N)c1ccc(C(C)(C)C)cc1 (stereo not drawn) [Compound 326] | ≥ 90% | ≥ 95% | ≥ 90% | pest or weed control at 1.25 µg/mL [1]: ≥ 90%; pest or weed control at 2 µg/mL [2, 6]: ≥ 90%; pest or weed control at 2 µg/mL ([3]; spray): ≥ 90%
CCC(=O)OC(C)O/C(=C(/C#N)c1ccc(C(C)(C)C)cc1)c1c(Cl)c(C)nn1CC (stereo not drawn) [Compound 327] | ≥ 90% | ≥ 95% | ≥ 90% | pest or weed control at 1.25 µg/mL [1]: ≥ 90%; pest or weed control at 2 µg/mL [2, 6]: ≥ 90%; pest or weed control at 2 µg/mL ([3]; spray): ≥ 90%
CCCC(=O)OC(C)O/C(=C(/C#N)c1ccc(C(C)(C)C)cc1)c1c(Cl)c(C)nn1CC (stereo not drawn) [Compound 328] | ≥ 90% | ≥ 95% | ≥ 90% | –
CCn1nc(C)c(Cl)c1/C(OC(C)OC(=O)C(C)C)=C(\C#N)c1ccc(C(C)(C)C)cc1 (stereo not drawn) [Compound 329] | ≥ 90% | ≥ 95% | ≥ 90% | –
CCn1nc(C)c(Cl)c1/C(OC(C)OC(=O)C(C)(C)C)=C(\C#N)c1ccc(C(C)(C)C)cc1 (stereo not drawn) [Compound 330] | ≥ 90% | ≥ 95% | ≥ 90% | –
CCCCC(=O)OC(C)O/C(=C(/C#N)c1ccc(C(C)(C)C)cc1)c1c(Cl)c(C)nn1CC (stereo not drawn) [Compound 331] | ≥ 90% | ≥ 95% | ≥ 90% | –

SMILES | pest or weed control at 2.5 µg/mL ([1]; concentration 2.5 mg/L) | pest or weed control at 2.5 µg/mL [2, 4] | pest or weed control at 5 µg/mL [3, 5] | also measured
CCn1nc(C)c(Cl)c1/C(OC(C)OC(=O)CC(C)C)=C(\C#N)c1ccc(C(C)(C)C)cc1 (stereo not drawn) [Compound 332] | ≥ 90% | ≥ 95% | ≥ 90% | –
CCn1nc(C)c(Cl)c1/C(OC(C)OC(=O)COC)=C(\C#N)c1ccc(C(C)(C)C)cc1 (stereo not drawn) [Compound 333] | ≥ 90% | ≥ 95% | ≥ 90% | –
CCn1nc(C)c(Cl)c1/C(OC(C)OC(=O)C1CC1)=C(\C#N)c1ccc(C(C)(C)C)cc1 (stereo not drawn) [Compound 334] | ≥ 90% | ≥ 95% | ≥ 90% | –
CCn1nc(C)c(Cl)c1/C(OC(C)OC(=O)CSC)=C(\C#N)c1ccc(C(C)(C)C)cc1 (stereo not drawn) [Compound 335] | ≥ 90% | ≥ 95% | ≥ 90% | –
CCn1nc(C)c(Cl)c1/C(OC(C)OC(=O)C1CCCCC1)=C(\C#N)c1ccc(C(C)(C)C)cc1 (stereo not drawn) [Compound 336] | ≥ 90% | ≥ 95% | ≥ 90% | –
CCn1nc(C)c(Cl)c1/C(OC(C)OC(=O)CF)=C(\C#N)c1ccc(C(C)(C)C)cc1 (stereo not drawn) [Compound 337] | – | – | – | pest or weed control at 2.5 µg/mL [1]: ≥ 90%; pest or weed control at 2.5 µg/mL [2, 7]: ≥ 95%; pest or weed control at 5 µg/mL [3]: ≥ 90%
CCn1nc(C)c(Cl)c1/C(OC(C)OC(=O)C(F)(F)F)=C(\C#N)c1ccc(C(C)(C)C)cc1 (stereo not drawn) [Compound 338] | ≥ 90% | ≥ 95% | ≥ 90% | –
CCn1nc(C)c(Cl)c1/C(OC(C)OC(=O)c1ccccc1)=C(\C#N)c1ccc(C(C)(C)C)cc1 (stereo not drawn) [Compound 339] | ≥ 90% | ≥ 95% | ≥ 90% | –
CCn1nc(C)c(Cl)c1/C(OC(C)OC(=O)Cc1ccccc1)=C(\C#N)c1ccc(C(C)(C)C)cc1 (stereo not drawn) [Compound 340] | ≥ 90% | – | ≥ 90% | pest or weed control at 2.5 µg/mL [2, 8]: ≥ 95%
CCn1nc(C)c(Cl)c1/C(OC(C)OC(=O)C(C)(C)CC)=C(\C#N)c1ccc(C(C)(C)C)cc1 (stereo not drawn) [Compound 341] | ≥ 90% | ≥ 95% | ≥ 90% | –
C=CC(=O)OC(C)O/C(=C(/C#N)c1ccc(C(C)(C)C)cc1)c1c(Cl)c(C)nn1CC (stereo not drawn) [Compound 342] | ≥ 90% | ≥ 95% | ≥ 90% | –
CCn1nc(C)c(C)c1/C(OCOC(C)=O)=C(\C#N)c1ccc(C(C)(C)C)cc1 [Compound 376] | ≥ 90% | ≥ 95% | ≥ 90% | –
CCC(=O)OCO/C(=C(/C#N)c1ccc(C(C)(C)C)cc1)c1c(C)c(C)nn1CC [Compound 377] | ≥ 90% | ≥ 95% | ≥ 90% | –
CCCC(=O)OCO/C(=C(/C#N)c1ccc(C(C)(C)C)cc1)c1c(C)c(C)nn1CC [Compound 378] | ≥ 90% | ≥ 95% | ≥ 90% | –
CCn1nc(C)c(C)c1/C(OCOC(=O)C(C)C)=C(\C#N)c1ccc(C(C)(C)C)cc1 [Compound 379] | ≥ 90% | ≥ 95% | ≥ 90% | –
CCn1nc(C)c(C)c1/C(OCOC(=O)C(C)(C)C)=C(\C#N)c1ccc(C(C)(C)C)cc1 [Compound 380] | ≥ 90% | ≥ 95% | ≥ 90% | –
CCCCC(=O)OCO/C(=C(/C#N)c1ccc(C(C)(C)C)cc1)c1c(C)c(C)nn1CC [Compound 381] | ≥ 90% | ≥ 95% | ≥ 90% | –
CCn1nc(C)c(C)c1/C(OCOC(=O)CC(C)C)=C(\C#N)c1ccc(C(C)(C)C)cc1 [Compound 382] | ≥ 90% | ≥ 95% | ≥ 90% | –
CCn1nc(C)c(C)c1/C(OCOC(=O)COC)=C(\C#N)c1ccc(C(C)(C)C)cc1 [Compound 383] | ≥ 90% | ≥ 95% | ≥ 90% | –
